Test results reported in patent US7405200B2, “Use of oxytocin for the preparation of a pharmaceutical composition against cancer in situ and cervicitis” (priority 2001, dated 2008).

Test system: cancer in situ and cervicitis
Assay: Effect of Oxytocin on Cancer in Situ and Cervicitis in Humans (Pap smear test)
Assay type: in vivo
Details: one patient with cancer in situ and cervicitis; oxytocin 1 mg/ml mixed with 1 ml cellulose gel intravaginally during five consecutive days
Procedure: Patients. 20 women, all aged 60–70 years, with postmenopausal disorders, participated in a double blind cross-over randomised protocol, which means that the patients receive both oxytocin and control treatment without knowing the order of the treatments.
Experimental procedure. The patients were treated with oxytocin 1 mg/ml mixed with 1 ml cellulose gel intravaginally during five consecutive days to relieve the postmenopausal disorders. However, it was discovered that one of the patients suffered from cancer in situ and cervicitis before the oxytocin treatment. This was established by the fact that the patient underwent a Pap smear test before the oxytocin treatment. In this test, cells desquamated from the genital epithelium are obtained by smears, fixed and stained, and examined under the microscope for evidence of pathologic changes. After the oxytocin treatment, the patient also underwent a Pap smear test.

## oxytocin
  results of the Pap smear tests before and after oxytocin administration: the cancer in situ and cervicitis was removed
